{
  "source": "patent US9018248B2",
  "about": "“Fatty acid derivatives of catechins and methods of their use” (Genesis Group Inc., priority 2010, dated 2015)",
  "key": {"iNOS": {"test_system": "iNOS", "assay": "iNOS protein expression in LPS-stimulated RAW 264.7 macrophages (western blot)", "format": "cell-based, murine", "settings": "LPS 100 ng/ml, RAW 264.7, western blot; 20 and 40 μM for 1a-1c", "description": "RAW 264.7 cells were cultured in Rosewell Park Memorial Institute (RPMI) 1640 media (without phenol red) supplemented with 10% endotoxin-free, heat-inactivated fetal calf serum, 100 units/ml penicillin, and 100 μg/ml streptomycin. When the cells reached a density of 2-3×10^6 cells/ml, they were activated by incubation in a medium containing E. coli lipopolysaccharide (LPS) (100 ng/ml). Various concentrations of compounds of the disclosure in dimethyl sulphoxide (DMSO) were added together with LPS. Cells were treated with 0.05% DMSO as the vehicle control. The stimulated murine macrophage cell line RAW 264.7 cells were washed with PBS and lysed in an ice-cold RIPA buffer (Tris-HCl, pH 7.2, 25 mM; 0.1% SDS; 1% Triton X-100; 1% sodium deoxycholate; 0.15 M NaCl; 1 mM EDTA) containing 1 mM phenylmethyl sulphonyl fluoride (PMSF), 10 μg/mL aprotinin, 1 mM sodium ortho-vanadate, and 5 μg/mL leupeptin. Protein concentrations were determined using the BCA method (Pierce, Rockford, Ill.). The samples (50 μg of protein) were mixed with 5-fold of sample buffer containing 0.3 M Tris-HCl (pH 6.8), 25% 2-mercaptoethanol, 12% sodium dodecyl sulphate (SDS), 25 mM EDTA, 20% glycerol, and 0.1% bromophenol blue. The mixtures were boiled at 100° C. for 5 min, prerun on a stacking gel, and then resolved by 12% SDS-polyacrylamide minigels at a constant current of 20 mA. For western blot, proteins on the gel were electro-transferred onto a […] immobile polyvinylidene fluoride (PVDF) membrane with a transfer buffer composed of 25 mM Tris-HCl (pH 8.9), 192 mM glycine, and 20% methanol, as described by Pan et al. (2000). […] The densities of the bands were quantitated using a densitometer (AlphaImager 2200 System). […] (7b) Inhibition Against LPS-Induced NO Production in RAW 264.7 Macrophage The LPS-induced NO production by the macrophages was determined as nitrite concentration in the culture medium according to the Griess reaction. […] The absorbance of the mixture at 550 nm was measured with an ELISA plate reader (Dynatech MR-7000; Dynatech Laboratories, Chantilly, Va., USA). […]"}, "[1]": {"test_system": "LPS-induced NO production", "assay": "LPS-induced NO production in RAW 264.7 macrophage (Griess reaction)", "format": "cell-based, murine", "settings": "RAW 264.7 macrophage, nitrite by Griess reaction, read-out: IC50, inhibition against LPS-induced NO production", "description": "RAW 264.7 cells were cultured in Rosewell Park Memorial Institute (RPMI) 1640 media (without phenol red) supplemented with 10% endotoxin-free, heat-inactivated fetal calf serum, 100 units/ml penicillin, and 100 μg/ml streptomycin. When the cells reached a density of 2-3×10^6 cells/ml, they were activated by incubation in a medium containing E. coli lipopolysaccharide (LPS) (100 ng/ml). Various concentrations of compounds of the disclosure in dimethyl sulphoxide (DMSO) were added together with LPS. Cells were treated with 0.05% DMSO as the vehicle control. The stimulated murine macrophage cell line RAW 264.7 cells were washed with PBS and lysed in an ice-cold RIPA buffer (Tris-HCl, pH 7.2, 25 mM; 0.1% SDS; 1% Triton X-100; 1% sodium deoxycholate; 0.15 M NaCl; 1 mM EDTA) containing 1 mM phenylmethyl sulphonyl fluoride (PMSF), 10 μg/mL aprotinin, 1 mM sodium ortho-vanadate, and 5 μg/mL leupeptin. Protein concentrations were determined using the BCA method (Pierce, Rockford, Ill.). The samples (50 μg of protein) were mixed with 5-fold of sample buffer containing 0.3 M Tris-HCl (pH 6.8), 25% 2-mercaptoethanol, 12% sodium dodecyl sulphate (SDS), 25 mM EDTA, 20% glycerol, and 0.1% bromophenol blue. The mixtures were boiled at 100° C. for 5 min, prerun on a stacking gel, and then resolved by 12% SDS-polyacrylamide minigels at a constant current of 20 mA. For western blot, proteins on the gel were electro-transferred onto a […] immobile polyvinylidene fluoride (PVDF) membrane with a transfer buffer composed of 25 mM Tris-HCl (pH 8.9), 192 mM glycine, and 20% methanol, as described by Pan et al. (2000). Membrane blocking was then carried out at room temperature for 1 h in blocking solution (20 mM Tris-HCl pH 7.4, 125 mM NaCl, 0.2% Tween 20, 1% bovine serum albumin, and 0.1% sodium azide). The membrane was incubated with the primary antibody of iNOS and COX-2 at 4° C. overnight. The membranes were subsequently probed with selected IgG antibody conjugated to horseradish peroxidase (Transduction Laboratories, Lexington, Ky.) and visualized using enhanced chemiluminescence (ECL, Amersham). The densities of the bands were quantitated using a densitometer (AlphaImager 2200 System). All the membranes were stripped and reprobed for β-actin (Sigma Chemical Co., St. Louis, Mo.) as loading control. […] The inhibition of iNOS induction by compounds of the disclosure may be due to down regulation of iNOS gene expression. […] (7b) Inhibition Against LPS-Induced NO Production in RAW 264.7 Macrophage The LPS-induced NO production by the macrophages was determined as nitrite concentration in the culture medium according to the Griess reaction. […] The absorbance of the mixture at 550 nm was measured with an ELISA plate reader (Dynatech MR-7000; Dynatech Laboratories, Chantilly, Va., USA). […]"}},
  "note": "Where two headings read alike, the source gives them in different places.",
  "data": [
    {"smiles": "CCC=CCC=CCC=CCC=CCC=CCCCC(=O)Oc1cc(C(=O)OC2Cc3c(O)cc(O)cc3OC2c2cc(OC(=O)CCCC=CCC=CCC=CCC=CCC=CCC)c(O)c(OC(=O)CCCC=CCC=CCC=CCC=CCC=CCC)c2)cc(OC(=O)CCCC=CCC=CCC=CCC=CCC=CCC)c1O", "note": "(centres unmarked) [Compound 1b]", "values": [
      {"measurement": "Inhibition of iNOS protein expression", "setting": "iNOS", "result": "strong dose-dependent relationship in suppressing the cytokine production"}
    ]},
    {"smiles": "O=C(O[C@@H]1Cc2c(O)cc(O)cc2O[C@@H]1c1cc(O)c(O)c(O)c1)c1cc(O)c(O)c(O)c1", "note": "[EGCG, Epigallocatechin gallate, reference compound]", "values": [
      {"measurement": "IC50", "setting": "[1]; Mus musculus, RAW264.7", "result": 103, "unit": "µM"},
      {"measurement": "IC50", "setting": "[1]", "result": 103, "unit": "µM"}
    ]},
    {"smiles": "CCC=CCC=CCC=CCC=CCC=CCC=CCCC(=O)Oc1cc(C(=O)OC2Cc3c(O)cc(O)cc3OC2c2cc(OC(=O)CCC=CCC=CCC=CCC=CCC=CCC=CCC)c(O)c(OC(=O)CCC=CCC=CCC=CCC=CCC=CCC=CCC)c2)cc(OC(=O)CCC=CCC=CCC=CCC=CCC=CCC=CCC)c1O", "note": "(centres unmarked) [Compound 1c]", "values": [
      {"measurement": "Inhibition of iNOS protein expression", "setting": "iNOS", "result": "the most potent in inhibiting the induction of iNOS expression"}
    ]},
    {"smiles": "CCCCCCCCCCCCCCCCCC(=O)Oc1cc(C(=O)OC2Cc3c(O)cc(O)cc3OC2c2cc(OC(=O)CCCCCCCCCCCCCCCCC)c(O)c(OC(=O)CCCCCCCCCCCCCCCCC)c2)cc(OC(=O)CCCCCCCCCCCCCCCCC)c1O", "note": "(centres unmarked) [Compound 1a, EGCG stearate]", "values": [
      {"measurement": "IC50", "setting": "[1]; Mus musculus, RAW264.7", "result": 40.7, "unit": "µM"}
    ]}
  ]
}
